The values that follow are results of earlier work, collected in US9072786B2, “Method of manufacturing an implantable device” (Endo Pharmaceuticals Solutions Inc., priority 2008, dated 2015).

For data set [1] the following is noted: concentration of surfactant at which micelles form.
The conditions of data set [2]: hydrophilic-lipophilic balance of the surfactant.

`CCCCCCCC/C=C\CCCCCCCC(=O)OCCOCC(OCCO)C1OCC(OCCO)C1OCCO` (stereo not shown) [Tween 80]: the “CMC” value in data set [1] was 0.012 mM. Also, the HLB in data set [2] was 15.
With Sucrose monolaurate, in data set [1], the “CMC” value is reported as 0.2 mM. The HLB in data set [2] was around 8.
